From ChEMBL document CHEMBL3046729, “Design, synthesis, and cytotoxic activities of new 2,4,5-triarylimidazoles” (Med Chem Res, 2013) come the findings set out here.

The subject of assay [1] is MDA-MB-231. Briefly: Cytotoxicity against Homo sapiens (human) MDA-MB-231 cells assessed as inhibition of cell proliferation after 72 hr by MTT assay. It is filed as functional, cell-based. As to conditions: MDA-MB-231, 72 h. A general note: Tetrazolium dyes change colour on reduction, which living cells bring about.
Assay [2] concerns T47D. Briefly: Cytotoxicity against Homo sapiens (human) T47D cells assessed as inhibition of cell proliferation after 72 hr by MTT assay. It is filed as functional, cell-based.
In assay [3] the test system is MCF7. As to the kind of experiment: Cytotoxicity against Homo sapiens (human) MCF7 cells assessed as inhibition of cell proliferation after 72 hr by MTT assay. It is filed as functional, cell-based. The conditions noted are these: MCF7, 72 h.
For assay [4], the system named is MCF7 (Homo sapiens). Briefly: Cytotoxicity against Homo sapiens (human) MCF7 cells assessed as inhibition of cell proliferation after 72 hr by MTT assay. The conditions noted are these: MCF7, 72 h.

For the molecule `CC/C(=C(\c1ccccc1)c1ccc(OCCN(C)C)cc1)c1ccccc1` [TAMOXIFEN], the results for the IC50 in assay [1], in assay [2] and in assay [3] were 25.1 µM, 12.1 µM and 55.5 µM, respectively.

For `Oc1ccc(-c2nc(-c3ccc(OCCN4CCCCC4)cc3)c(-c3ccccc3)[nH]2)cc1`, the IC50 in assay [1], in assay [2] and in assay [3] was less than 0.1 µM each time.

`COc1ccc(-c2nc(-c3ccc(OCCN(C)C)cc3)c(-c3ccccc3)[nH]2)cc1`: the IC50 was 42 µM in assay [1] and 28 µM in assay [2].

Consider `CN(C)CCOc1ccc(-c2nc(-c3ccccc3)[nH]c2-c2ccccc2)cc1`, for which the IC50 in assay [1] was 53 µM; in assay [2] it was 50 µM.

For the molecule `CN(C)CCOc1ccc(-c2nc(-c3ccc(O)cc3)[nH]c2-c2ccccc2)cc1`, the values for the IC50 in assay [1], in assay [2] and in assay [3] were 70 µM, 63 µM and 82 µM, respectively.

Take `COc1ccc(-c2nc(-c3ccc(OCCN4CCCCC4)cc3)c(-c3ccccc3)[nH]2)cc1`: the IC50 in assay [1] is 65 µM; in assay [2], 54 µM; in assay [3] it was 71 µM.

Consider `c1ccc(-c2nc(-c3ccc(OCCN4CCCCC4)cc3)c(-c3ccccc3)[nH]2)cc1`, for which the IC50 in assay [1], in assay [2] and in assay [3] was less than 0.1 µM each time.

As to `CN(C)CCOc1ccc(-c2nc(-c3ccc(F)cc3)[nH]c2-c2ccccc2)cc1`, the IC50 in assay [2] was found to be 61 µM; in assay [4] it was 82 µM.

On to `Fc1ccc(-c2nc(-c3ccc(OCCN4CCCCC4)cc3)c(-c3ccccc3)[nH]2)cc1`, for which the IC50 is 78 µM in assay [1], 61 µM in assay [2] and greater than 100 µM in assay [3].

In general, IC50 refers to the concentration that inhibits the measured activity by half.
